Legend:
[1] = molecular target: T1, Ba/F3-TPR-MET cells (Homo sapiens, UniProt P08581); experiment: CellTiter-Glo Cell Viability Assay, Ba/F3-TPR-MET; format: cell-based; settings: 72 hours
T1 construct: fused on or other part: P12270 (Nucleoprotein TPR)
Experimental: (§1) Ba/F3-TPR-MET and Ba/F3-TPR-MET-D1228N cells were seeded at 3000 cells per well in a 96 well plate in 90 μL growth media and allowed to incubate overnight at 37° C. with 5% CO2. The following day, compounds were serially diluted from a 10 mM top dose for a 9-point 3-fold dilution curve in DMSO. Following a 100-fold dilution in growth media, a further 10-fold dilution was made into the cell plate for a final volume of 100 μL and 0.1% DMSO. Compounds and cells were incubated together for 72 hours at 37° C. with 5% CO2. The CellTiter-Glo® 2.0 Assay determines the number of viable cells in culture by quantifying ATP, which indicates the presence of metabolically active cells. Luminescence readout is directly proportional to the number of viable cells in culture. CellTiter-Glo reagent (Promega, G9243) and cell plates were allowed to equilibrate to room temperature for at least 15 min, then 100 μL of CellTiter-Glo was added to each well for a 1:1 ratio of reagent to media. Samples were placed on a shaker for 2 min prior to a 30 min incubation at room temperature protected from light. Luminescence was read on a Perkin Elmer Envision plate reader 2105 and used to calculate ICso values within the Dotmatics Knowledge Solutions Studies curve fitting environment (Dotmatics, Bishops Stortford, UK, CM23) and are presented in Table 2.

[2] = molecular target: T2, MET (Homo sapiens, UniProt P08581); experiment: MET Mobility Shift Assay; settings: biochemical assay IC50; 100 μM ATP, 60 minute kinase reaction
T2 construct: purchased Carna Biosciences 08-151
T2 sequence (P08581 25-1390): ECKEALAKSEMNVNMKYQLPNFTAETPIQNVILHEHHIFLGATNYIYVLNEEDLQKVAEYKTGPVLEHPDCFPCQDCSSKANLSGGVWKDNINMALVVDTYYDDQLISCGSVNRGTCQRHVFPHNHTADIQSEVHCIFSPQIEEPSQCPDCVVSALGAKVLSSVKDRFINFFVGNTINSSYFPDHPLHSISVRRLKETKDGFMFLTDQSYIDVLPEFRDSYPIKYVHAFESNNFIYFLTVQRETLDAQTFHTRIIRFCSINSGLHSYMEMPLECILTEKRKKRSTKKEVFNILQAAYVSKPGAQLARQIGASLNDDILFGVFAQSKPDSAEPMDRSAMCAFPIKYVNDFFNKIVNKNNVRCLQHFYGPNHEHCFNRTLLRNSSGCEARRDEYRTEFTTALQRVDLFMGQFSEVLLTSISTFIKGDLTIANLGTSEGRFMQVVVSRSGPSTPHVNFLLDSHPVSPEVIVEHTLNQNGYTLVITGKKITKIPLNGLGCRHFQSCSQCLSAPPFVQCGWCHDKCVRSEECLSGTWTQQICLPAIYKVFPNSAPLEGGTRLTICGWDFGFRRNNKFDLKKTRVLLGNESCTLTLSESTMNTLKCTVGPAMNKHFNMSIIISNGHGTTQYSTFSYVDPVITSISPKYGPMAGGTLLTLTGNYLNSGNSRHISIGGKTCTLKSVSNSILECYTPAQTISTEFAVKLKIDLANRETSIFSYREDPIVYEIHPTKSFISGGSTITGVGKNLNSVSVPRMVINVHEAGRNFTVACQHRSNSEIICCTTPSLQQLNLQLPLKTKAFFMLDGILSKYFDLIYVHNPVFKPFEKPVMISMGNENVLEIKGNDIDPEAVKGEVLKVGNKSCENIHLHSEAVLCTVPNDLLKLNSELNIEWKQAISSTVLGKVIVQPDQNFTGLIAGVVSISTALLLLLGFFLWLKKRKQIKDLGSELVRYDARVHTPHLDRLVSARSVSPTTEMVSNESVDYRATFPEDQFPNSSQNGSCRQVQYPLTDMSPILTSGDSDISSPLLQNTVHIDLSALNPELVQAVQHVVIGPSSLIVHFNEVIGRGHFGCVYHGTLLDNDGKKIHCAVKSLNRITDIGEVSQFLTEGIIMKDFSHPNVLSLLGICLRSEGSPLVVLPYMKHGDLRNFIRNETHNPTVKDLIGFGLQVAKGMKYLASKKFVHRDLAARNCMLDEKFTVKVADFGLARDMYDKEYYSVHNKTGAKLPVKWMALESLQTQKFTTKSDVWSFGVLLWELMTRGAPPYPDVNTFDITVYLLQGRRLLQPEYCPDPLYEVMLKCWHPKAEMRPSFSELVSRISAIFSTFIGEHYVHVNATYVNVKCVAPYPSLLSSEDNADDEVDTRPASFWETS
Experimental: (§2) Small molecule inhibition of MET kinase activity was evaluated using a fluorescence-based microfluidic mobility shift assay. MET catalyzes the production of ADP from ATP during phosphoryl transfer to the substrate peptide, FLPeptide30 (5-FAM-KKKKEEIYFFF-CONH2) (Perkin Elmer, 760430). MET enzme (Carna Biosciences, 08-151) at 0.625 nM was prepared with 10 mM MgCl2 and 1.5 μM substrate peptide in a buffer containing 50 mM HEPES, 1 mM EGTA, 0.01% Brij-35, 0.05% BSA, and 2 mM DTT and pre-incubated at room temperature for 30 min prior to the start of the reaction. 100 μM ATP was added to start the reaction. The mobility shift assay electrophoretically separates the fluorescently labeled peptides (substrate and phosphorylated product) following the 60 minute kinase reaction. The reaction was terminated by addition of 0.5 M EDTA. Both substrate and product were measured and the ratio of these values used to generate % conversion of substrate to product by the LabChip EZ reader (Perkin Elmer). ICso values were calculated using the inhibition of conversion ratio using Dotmatics Knowledge Solutions Studies curve fitting environment (Dotmatics, Bishops Stortford, UK, CM23) and are presented in Table 2.

[3] = molecular target: T3, MET D1228N (Homo sapiens, UniProt P08581, D1228N); experiment: MET D1228N Mobility Shift Assay; settings: biochemical assay IC50; 100 μM ATP, 60 minute kinase reaction
T3 construct: purchased Signalchem M52-12IG
T3 sequence (P08581 25-1390 D1228N): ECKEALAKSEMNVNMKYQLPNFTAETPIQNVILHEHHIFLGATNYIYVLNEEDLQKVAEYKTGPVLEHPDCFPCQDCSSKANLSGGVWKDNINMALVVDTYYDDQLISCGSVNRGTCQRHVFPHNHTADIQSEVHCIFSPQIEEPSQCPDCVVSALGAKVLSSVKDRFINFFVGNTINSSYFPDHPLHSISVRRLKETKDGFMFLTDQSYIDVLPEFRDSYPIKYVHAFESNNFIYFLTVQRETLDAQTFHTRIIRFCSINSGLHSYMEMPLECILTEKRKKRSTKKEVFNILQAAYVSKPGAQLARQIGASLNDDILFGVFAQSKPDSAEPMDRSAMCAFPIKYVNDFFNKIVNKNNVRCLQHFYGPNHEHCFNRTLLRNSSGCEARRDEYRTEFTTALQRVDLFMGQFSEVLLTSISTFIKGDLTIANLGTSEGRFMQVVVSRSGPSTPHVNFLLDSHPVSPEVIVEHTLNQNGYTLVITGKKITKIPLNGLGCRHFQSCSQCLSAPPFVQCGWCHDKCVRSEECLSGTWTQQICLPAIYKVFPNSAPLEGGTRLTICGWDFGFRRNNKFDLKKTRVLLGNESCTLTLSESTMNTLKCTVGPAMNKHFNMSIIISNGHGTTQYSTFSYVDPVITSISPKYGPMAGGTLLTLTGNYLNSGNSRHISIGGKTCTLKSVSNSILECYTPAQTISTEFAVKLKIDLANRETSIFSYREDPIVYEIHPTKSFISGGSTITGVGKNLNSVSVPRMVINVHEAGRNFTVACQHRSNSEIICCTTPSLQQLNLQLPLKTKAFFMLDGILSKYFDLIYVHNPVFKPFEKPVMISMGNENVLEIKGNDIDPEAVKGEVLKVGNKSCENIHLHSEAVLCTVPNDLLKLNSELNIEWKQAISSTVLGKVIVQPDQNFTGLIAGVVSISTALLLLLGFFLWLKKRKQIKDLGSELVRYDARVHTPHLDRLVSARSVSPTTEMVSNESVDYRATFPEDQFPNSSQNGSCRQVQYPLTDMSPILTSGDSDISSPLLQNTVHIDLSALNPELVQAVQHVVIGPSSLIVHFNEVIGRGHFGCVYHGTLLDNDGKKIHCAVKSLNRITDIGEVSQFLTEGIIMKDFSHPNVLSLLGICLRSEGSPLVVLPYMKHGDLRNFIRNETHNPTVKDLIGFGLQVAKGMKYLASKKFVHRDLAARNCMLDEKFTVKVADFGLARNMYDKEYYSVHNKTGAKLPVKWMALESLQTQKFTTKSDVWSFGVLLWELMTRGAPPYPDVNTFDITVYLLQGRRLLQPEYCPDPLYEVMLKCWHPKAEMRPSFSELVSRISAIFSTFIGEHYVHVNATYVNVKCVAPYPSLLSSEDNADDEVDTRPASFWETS
Experimental: as §2, with “MET D1228N” for “MET”, “a fluorescence -based” for “a fluorescence-based”, “FLPeptide30 (5-FAM-KKKKEEIYFFF -CONH2)” for “FLPeptide30 (5-FAM-KKKKEEIYFFF-CONH2)”, “MET D1228N enzyme (Signalchem, M52-12IG)” for “MET enzme (Carna Biosciences, 08-151)”, “at 0.313” for “at 0.625”

[4] = molecular target: T4, Ba/F3-TPR-MET-D1228N cells (Homo sapiens, UniProt P08581, D1228N, cells depend on it); experiment: CellTiter-Glo Cell Viability Assay, Ba/F3-TPR-MET-D1228N; format: cell-based; settings: 72 hours
T4 construct: fused on or other part: P12270 (Nucleoprotein TPR)
Experimental: as §1

T1 sequence (P08581 whole entry, change not shown, the tested form may be a part): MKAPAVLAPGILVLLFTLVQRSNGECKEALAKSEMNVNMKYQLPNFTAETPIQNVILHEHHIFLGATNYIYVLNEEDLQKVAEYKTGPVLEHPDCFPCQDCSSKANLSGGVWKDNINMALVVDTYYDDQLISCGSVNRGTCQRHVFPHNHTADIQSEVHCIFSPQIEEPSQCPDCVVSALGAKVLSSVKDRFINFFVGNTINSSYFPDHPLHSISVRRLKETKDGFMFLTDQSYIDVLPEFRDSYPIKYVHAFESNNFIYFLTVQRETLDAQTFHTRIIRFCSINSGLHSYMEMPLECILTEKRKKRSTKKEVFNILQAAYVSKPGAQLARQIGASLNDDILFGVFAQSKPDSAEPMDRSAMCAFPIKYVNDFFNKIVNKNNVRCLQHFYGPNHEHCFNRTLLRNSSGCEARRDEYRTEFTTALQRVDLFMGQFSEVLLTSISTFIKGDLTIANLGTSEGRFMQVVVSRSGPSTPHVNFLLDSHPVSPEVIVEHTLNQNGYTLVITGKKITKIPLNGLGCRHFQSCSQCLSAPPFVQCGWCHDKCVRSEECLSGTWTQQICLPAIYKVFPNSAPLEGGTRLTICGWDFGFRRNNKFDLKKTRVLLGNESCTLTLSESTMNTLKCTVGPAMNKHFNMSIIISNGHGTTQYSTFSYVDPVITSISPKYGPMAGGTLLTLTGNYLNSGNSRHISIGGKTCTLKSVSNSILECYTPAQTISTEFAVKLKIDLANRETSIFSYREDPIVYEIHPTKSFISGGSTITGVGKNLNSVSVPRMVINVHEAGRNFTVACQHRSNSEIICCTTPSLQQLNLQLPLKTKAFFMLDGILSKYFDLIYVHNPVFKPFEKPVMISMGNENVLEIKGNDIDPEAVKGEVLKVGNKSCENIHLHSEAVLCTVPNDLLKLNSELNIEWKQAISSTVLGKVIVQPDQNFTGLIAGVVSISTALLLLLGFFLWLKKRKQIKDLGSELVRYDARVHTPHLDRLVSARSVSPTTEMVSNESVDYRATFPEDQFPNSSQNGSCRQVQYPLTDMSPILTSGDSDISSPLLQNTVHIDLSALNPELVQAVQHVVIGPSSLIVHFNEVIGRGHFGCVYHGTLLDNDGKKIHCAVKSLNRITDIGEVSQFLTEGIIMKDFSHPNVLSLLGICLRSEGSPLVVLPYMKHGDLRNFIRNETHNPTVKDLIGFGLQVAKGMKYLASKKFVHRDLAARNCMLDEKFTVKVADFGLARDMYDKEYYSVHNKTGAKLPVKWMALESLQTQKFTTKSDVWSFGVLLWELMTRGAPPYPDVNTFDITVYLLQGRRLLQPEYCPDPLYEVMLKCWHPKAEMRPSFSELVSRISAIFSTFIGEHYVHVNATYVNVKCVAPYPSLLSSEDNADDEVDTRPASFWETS

| IC50 [2] [nM] | IC50 [3] [nM] | Structure (SMILES) | EC50 [1] [nM] | EC50 [4] [nM] |
| --- | --- | --- | --- | --- |
| ≤ 100 | ≤ 100 | CNCCOc1cc2nccc(Oc3c(F)cc(NC(=O)c4cnccc4OC)cc3F)c2cc1OC [Example 1, N-(3,5-difluoro-4-((6-methoxy-7-(2-(methylamino)ethoxy)quinolin-4-yl)oxy)phenyl)-4-methoxypyridine-3-carboxamide] | ≤ 100 | ≤ 100 |
| ≤ 100 | ≤ 100 | CNCCOc1cc2nccc(Oc3c(F)cc(NC(=O)c4cc(F)c(F)cc4OC)cc3F)c2cc1OC [Example 2, N-(3,5-difluoro-4-((6-methoxy-7-(2-(methylamino)ethoxy)quinolin-4-yl)oxy)phenyl)-4,5-difluoro-2-methoxybenzamide] | 1000 to 10000 | 100 to 1000 |
| ≤ 100 | ≤ 100 | CNCCOc1cc2nccc(Oc3c(F)cc(NC(=O)c4cnc(Cl)cc4OC)cc3F)c2cc1OC [Example 3, 6-chloro-N-(3,5-difluoro-4-((6-methoxy-7-(2-(methylamino)ethoxy)quinolin-4-yl)oxy)phenyl)-4-methoxypyridine-3-carboxamide] | ≤ 100 | 100 to 1000 |
| ≤ 100 | ≤ 100 | CNCCOc1cc2nccc(Oc3c(F)cc(NC(=O)c4c(OC)ccnc4F)cc3F)c2cc1OC [Example 4, N-(3,5-difluoro-4-((6-methoxy-7-(2-(methylamino)ethoxy)quinolin-4-yl)oxy)phenyl)-2-fluoro-4-methoxypyridine-3-carboxamide] | 100 to 1000 | 100 to 1000 |
| ≤ 100 | ≤ 100 | CCOc1ccncc1C(=O)Nc1cc(F)c(Oc2ccnc3cc(OCCNC)c(OC)cc23)c(F)c1 [Example 5, N-(3,5-difluoro-4-((6-methoxy-7-(2-(methylamino)ethoxy)quinolin-4-yl)oxy)phenyl)-4-ethoxypyridine-3-carboxamide] | ≤ 100 | ≤ 100 |
| ≤ 100 | ≤ 100 | CNCCOc1cc2nccc(Oc3c(F)cc(NC(=O)c4cnccc4OC)cc3Cl)c2cc1OC [Example 6, N-(3-chloro-5-fluoro-4-((6-methoxy-7-(2-(methylamino)ethoxy)quinolin-4-yl)oxy)phenyl)-4-methoxypyridine-3-carboxamide] | 100 to 1000 | 100 to 1000 |
| ≤ 100 | ≤ 100 | CNCCOc1cc2ncnc(Oc3c(F)cc(NC(=O)c4c(OC)ccnc4F)cc3F)c2cc1OC [Example 7, N-(3,5-difluoro-4-((6-methoxy-7-(2-(methylamino)ethoxy)quinazolin-4-yl)oxy)phenyl)-2-fluoro-4-methoxypyridine-3-carboxamide] | 1000 to 10000 | 100 to 1000 |
| ≤ 100 | ≤ 100 | CNCCOc1cc2ncnc(Oc3c(F)cc(NC(=O)c4cnccc4OC)cc3F)c2cc1OC [Example 8, N-(3,5-difluoro-4-((6-methoxy-7-(2-(methylamino)ethoxy)quinazolin-4-yl)oxy)phenyl)-4-methoxypyridine-3-carboxamide] | 100 to 1000 | 100 to 1000 |
| ≤ 100 | ≤ 100 | CNCCOc1ccc2c(Oc3c(F)cc(NC(=O)c4c(OC)ccnc4F)cc3F)ccnc2c1 [Example 9, N-(3,5-difluoro-4-((7-(2-(methylamino)ethoxy)quinolin-4-yl)oxy)phenyl)-2-fluoro-4-methoxypyridine-3-carboxamide] | 100 to 1000 | ≤ 100 |
| ≤ 100 | ≤ 100 | CNCCOc1ccc2c(Oc3c(F)cc(NC(=O)c4cnccc4OC)cc3F)ccnc2c1 [Example 10, N-(3,5-difluoro-4-((7-(2-(methylamino)ethoxy)quinolin-4-yl)oxy)phenyl)-4-methoxypyridine-3-carboxamide] | ≤ 100 | ≤ 100 |
| ≤ 100 | ≤ 100 | CCOc1ccncc1C(=O)Nc1cc(F)c(Oc2ccnc3cc(OCCNC)ccc23)c(F)c1 [Example 11, N-(3,5-difluoro-4-((7-(2-(methylamino)ethoxy)quinolin-4-yl)oxy)phenyl)-4-ethoxypyridine-3-carboxamide] |  |  |
| ≤ 100 | ≤ 100 | CNCCOc1cc2nccc(Oc3ccc(NC(=O)c4cnccc4OC)c(F)c3F)c2cc1OC [Example 14, N-(2,3-difluoro-4-((6-methoxy-7-(2-(methylamino)ethoxy)quinolin-4-yl)oxy)phenyl)-4-methoxypyridine-3-carboxamide] | 100 to 1000 | 100 to 1000 |
| ≤ 100 | ≤ 100 | CNCCOc1cc2nccc(Oc3ccc(NC(=O)c4c(OC)ccnc4F)c(F)c3F)c2cc1OC [Example 15, N-(2,3-difluoro-4-((6-methoxy-7-(2-(methylamino)ethoxy)quinolin-4-yl)oxy)phenyl)-2-fluoro-4-methoxypyridine-3-carboxamide] | 100 to 1000 | 100 to 1000 |
| ≤ 100 | ≤ 100 | CCOc1ccncc1C(=O)Nc1ccc(Oc2ccnc3cc(OCCNC)c(OC)cc23)c(F)c1F [Example 16, N-(2,3-difluoro-4-((6-methoxy-7-(2-(methylamino)ethoxy)quinolin-4-yl)oxy)phenyl)-4-ethoxypyridine-3-carboxamide] | 100 to 1000 | 100 to 1000 |
| ≤ 100 | ≤ 100 | CCOc1ccncc1C(=O)Nc1ccc(Oc2ccnc3cc(OCCCNC)c(OC)cc23)c(F)c1F [Example 17, N-[2,3-difluoro-4-({6-methoxy-7-[3-(methylamino)propoxy]quinolin-4-yl}oxy)phenyl]-4-ethoxypyridine-3-carboxamide] | ≤ 100 | ≤ 100 |
| ≤ 100 | ≤ 100 | CNCCCOc1cc2nccc(Oc3ccc(NC(=O)c4cnccc4OC)c(F)c3F)c2cc1OC [Example 18, N-[2,3-difluoro-4-({6-methoxy-7-[3-(methylamino)propoxy]quinolin-4-yl}oxy)phenyl]-4-methoxypyridine-3-carboxamide] | 100 to 1000 | ≤ 100 |
| ≤ 100 | ≤ 100 | CNCCOc1cc2nccc(Oc3cc(F)c(NC(=O)c4cnc(Cl)cc4OC)cc3F)c2cc1OC [Example 26, 6-chloro-N-[2,5-difluoro-4-({6-methoxy-7-[2-(methylamino)ethoxy]quinolin-4-yl}oxy)phenyl]-4-methoxypyridine-3-carboxamide] |  |  |
| ≤ 100 | ≤ 100 | CNCCOc1cc2nccc(Oc3ccc(NC(=O)c4cnc(N)cc4OC)c(F)c3F)c2cc1OC [Example 33, 6-amino-N-[2,3-difluoro-4-({6-methoxy-7-[2-(methylamino)ethoxy]quinolin-4-yl}oxy)phenyl]-4-methoxypyridine-3-carboxamide] |  |  |
| ≤ 100 | ≤ 100 | CNCCOc1cc2nccc(Oc3ccc(NC(=O)c4cnccc4OC(F)F)c(F)c3F)c2cc1OC [Example 48, N-[2,3-difluoro-4-({6-methoxy-7-[2-(methylamino)ethoxy]quinolin-4-yl}oxy)phenyl]-4-(difluoromethoxy)pyridine-3-carboxamide] |  |  |
| ≤ 100 | ≤ 100 | CNCCOc1cc2nccc(Oc3ccc(NC(=O)c4cnccc4OC4CC4)c(F)c3F)c2cc1OC [Example 83, 4-cyclopropoxy-N-[2,3-difluoro-4-({6-methoxy-7-[2-(methylamino)ethoxy]quinolin-4-yl}oxy)phenyl]pyridine-3-carboxamide] |  |  |

From patent US11753395B2 (Kinnate Biopharma Inc., priority 2021, dated 2023)
